Key:
naïve wild-type mice [1] = assay: 4EPS sufficiency experiment: open field exploration; type: in vivo
Protocol: The open field test is widely used to measure anxiety-like and locomotor behavior in rodents. Mice were placed in 50×50 cm white Plexiglas boxes for 10 minutes. An overhead video camera recorded the session, and Ethovision software (Noldus) was used to analyze the distance traveled, and the number of entries and duration of time spent in the center arena (central 17 cm square).
(§1) Wildtype mice were injected i.p. with saline or 30 mg/kg 4EPS potassium salt daily from 3 to 6 weeks of age. A dose-response curve was generated by measuring serum 4EPS levels at various times after i.p. injection of 30 mg/kg 4EPS (FIG. 15C). Mice were behaviorally tested as described above from 6 to 9 weeks of age.

naïve wild-type mice [2] = assay: 4EPS sufficiency experiment: pre-pulse inhibition and startle; type: in vivo; settings: 30 mg/kg i.p. daily
Protocol: PPI tests are used as a measure of sensorimotor gating and were conducted and analyzed according to the procedure described in Geyer and Swerdlow, 2001 and Smith et al., 2007. Briefly, mice were acclimated to the testing chambers of the SR-LAB startle response system (San Diego Instruments) for 5 minutes, presented with six 120 db pulses of white noise (startle stimulus) and then subjected to 14 randomized blocks of either no startle, startle stimulus only, 5 db prepulse with startle or 15 db prepulse with startle. The startle response was recorded by a piezo-electric sensor, and the percent PPI is defined as: [((startle stimulus only—5 or 15 db prepulse with startle)/startle stimulus only)*100].
as §1

naïve wild-type mice [3] = assay: 4EPS sufficiency experiment: marble burying; type: in vivo; settings: 4EPS-treated versus saline-treated mice
Protocol: Marble burying is an elicited repetitive behavior in rodents analogous to those observed in autistic individuals (Silverman et al., 2010b). This test was conducted and analyzed according to methods described in Thomas et al., 2009 and Malkova et al., 2012. Mice were habituated for 10 minutes to a novel testing cage containing a 4 cm layer of chipped cedar wood bedding and then transferred to a new housing cage. 18 glass marbles (15 mm diameter) were aligned equidistantly 6×3 in the testing cage. Mice were returned to the testing cage and the number of marbles buried in 10 minutes was recorded.
as §1

naïve wild-type mice [4] = assay: 4EPS sufficiency experiment: ultrasonic vocalizations; type: in vivo; settings: 4EPS-treated versus saline-treated mice
Protocol: Male mice produce USVs in response to female mice as an important form of communication (Portfors, 2007). Adult male USV production in response to novel female exposure was measured according to methods described in Grimsley et al., 2011; Scattoni et al., 2011; and Silverman et al., 2010a. Adult males were single-housed one week before testing and exposed for 20 minutes to an unfamiliar adult female mouse each day starting four days prior to testing in order to provide a standardized history of sexual experience and to adjust for differences in social dominance. On testing day, mice were habituated to a novel cage for 10 minutes before exposure to a novel age-matched female. USVs were recorded for 3 minutes using the UltraSoundGate microphone and audio system (Avisoft Bioacoustics). Recordings were analyzed using Avisoft's SASLab Pro software after fast Fourier transformation at 512 FFT-length and detection by a threshold-based algorithm with 5 ms hold time. Data presented reflect duration and number of calls produced in the 3 minute session.
as §1

[5] = 4EPS sufficiency experiment: body weight; type: in vivo; settings: 4EPS- versus control-treated mice
Protocol: as §1

[6] = Serum 4EPS after i.p. injection; type: in vivo; settings: single i.p. injection of 30 mg/kg potassium 4EPS, adult wild-type mice
Protocol: Authentic 4EPS and serum samples were analyzed by LC/MS using an Agilent […] HPLC system equipped with a photodiode array detector and interfaced to a model G1946C single quadrupole […] mass spectrometer. HPLC separations were obtained at 25° C. using an Agilent Zorbax XDB-C18 column (4.6 mm×50 mm×5 um particle size). The 4EPS ion was detected using selected ion monitoring for ions of m/z 200.9 and dwell time of 580 ms/ion, with the electrospray capillary set at 3 kV. […] For quantification of 4EPS in mouse sera, a dose-response curve was constructed by plotting the total ion count peak area for known concentrations of authentic potassium 4EPS against the analyte concentration (R^2=0.9998; FIG. 15B). Mouse serum samples were diluted four-fold with acetonitrile and centrifuged at 10,000 g at 4° C. for 3 minutes. 10 ul of supernatant was injected directly into the HPLC system.
as §1

ASD individuals = settings: cited from earlier work
CNTNAP2 knockout mice = settings: cited from earlier work
claudin 8 and claudin 15 [7] = assay: IL-6 oral gavage, colon claudin expression; parameters: species or system mice; settings: in vivo
Protocol: (§2) For in vivo assays, adult mice were gavaged with 5 ug carrier-free recombinant mouse IL-6 (eBioscience) in 1.5% sodium bicarbonate. At 4 hours post-gavage, 1 cm regions of distal, medial and proximal colon were dissected, washed in HBSS and processed for qRT-PCR, as described above. For in vitro assays, adult mice were sacrificed and 1 cm regions of distal, medial and proximal colon were dissected, washed and bisected for colon culture with 0-80 ng/ml IL-6 in complete RPMI media. After 4 hours of culture, colon pieces were harvested and processed for qRT-PCR, as described above.

claudin 8 and claudin 15 [8] = assay: In vitro colon culture with IL-6, claudin expression; type: cell-based, mice; settings: in vitro colon organ cultures
Protocol: as §2

[9] = 30 mg/kg i.p. daily, relative to vehicle-treated controls

## CCc1ccc(OS(=O)(=O)[O-])cc1.[K+] [4-ethylphenylsulfate]
naïve wild-type mice [1]; 30 mg/kg i.p. daily from 3 to 6 weeks of age
  anxiety-like behavior: sufficient to induce anxiety-like behavior
naïve wild-type mice [1]; [9]
  distance traveled in the open field: comparable distances
  time in the center arena: less time
naïve wild-type mice [1]; 30 mg/kg i.p. daily, versus vehicle-treated mice
  number of entries into the center of the field: no difference
naïve wild-type mice [2]; 5 db or 15 db pre-pulse
  PPI: no significant alterations
naïve wild-type mice [2]; 120 db pulse
  intensity of startle in response to the unconditioned primary stimulus: increased intensity of startle
naïve wild-type mice [3]
  marble burying: no significant differences
naïve wild-type mice [4]
  USV behavior: no significant differences
[5]
  weight: no difference
[6]
  serum 4EPS: Time-dependent increases

## Cc1nc2n(c(=O)c1CCN1CCC(c3noc4cc(F)ccc34)CC1)CCCC2 [risperidone]
ASD individuals
  social behavior: inability to improve social behavior
CNTNAP2 knockout mice
  social behavior: inability to improve social behavior

B1: recombinant IL-6: carrier-free recombinant mouse IL-6 (eBioscience) (protein, UniProt P08505 25-211, looked up)
Interleukin-6: FPTSQVRRGDFTEDTTPNRPVYTTSQVGGLITHVLWEIVEMRKELCNGNSDCMNNDDALAENNLKLPEIQRNDGCYQTGYNQEICLLKISSGLLEYHSYLEYMKNNLKDNKKDKARVLQRDTETLIHIFNQEVKDLHKIVLPTPISNALLTDKLESQKEWLRTKTIQFILKSLEEFLKVTLRSTRQT
Claudin 8 and claudin 15 [7]
  colon levels of claudin 8 and claudin 15: can modulate
Claudin 8 and claudin 15 [8]
  colon levels of claudin 8 and claudin 15: can modulate
